Activity calls are given as the source filed them. The rule behind the calls is not given here.
Columns and labels:
[1] = Acute toxicity in Albino Swiss mouse assessed as aggressiveness at 300 mg/kg, po administered as single dose measured after 14 days; format: organism-based; conditions: in vivo, 336 h, time 14 day
[2] = Acute toxicity in Albino Swiss mouse assessed as change in urine color at 300 mg/kg, po administered as single dose measured after 14 days; format: organism-based; conditions: in vivo, 336 h, time 14 day
[3] = Acute toxicity in Albino Swiss mouse assessed as change in relative weight of spleen at 300 mg/kg, po administered as single dose measured after 14 days; format: organism-based; conditions: in vivo, 336 h, time 14 day
[4] = Acute toxicity in Albino Swiss mouse assessed as change in defecation at 300 mg/kg, po administered as single dose measured after 14 days; format: organism-based; conditions: in vivo, 336 h, time 14 day
[5] = Acute toxicity in Albino Swiss mouse assessed as escape reaction at 300 mg/kg, po administered as single dose measured after 14 days; format: organism-based; conditions: in vivo, 336 h, time 14 day
[6] = Acute toxicity in Albino Swiss mouse assessed as signs of pallor at 300 mg/kg, po administered as single dose measured after 14 days; format: organism-based; conditions: in vivo, 336 h, time 14 day
Plasmodium berghei [7] = experiment: Antimalarial activity against Plasmodium berghei ANKA infected in Albino Swiss mouse assessed as half-survival time at 15 mg/kg, po administered for 4 consecutive days measured for 30 days (reference value: 16 day); format: functional; conditions: time 30 day
[8] = Acute toxicity in Albino Swiss mouse assessed as contortions at 300 mg/kg, po administered as single dose measured after 14 days; format: organism-based; conditions: in vivo, 336 h, time 14 day
HepG2 = experiment: Cytotoxicity against human HepG2 cells incubated for 24 hrs by MTT assay; format: functional
[9] = Acute toxicity in Albino Swiss mouse assessed as signs of toxicity at 300 mg/kg, po administered as single dose measured after 14 days; format: organism-based; conditions: in vivo, 336 h, time 14 day
[10] = Acute toxicity in Albino Swiss mouse assessed as change in sensory function at 300 mg/kg, po administered as single dose measured after 14 days; format: organism-based; conditions: in vivo, 336 h, time 14 day
[11] = Acute toxicity in Albino Swiss mouse assessed as change in relative weight of liver at 300 mg/kg, po administered as single dose measured after 14 days; format: organism-based; conditions: in vivo, 336 h, time 14 day
[12] = Acute toxicity in Albino Swiss mouse assessed as signs of hyperemia at 300 mg/kg, po administered as single dose measured after 14 days; format: organism-based; conditions: in vivo, 336 h, time 14 day
Plasmodium berghei [13] = experiment: Antimalarial activity against Plasmodium berghei ANKA infected in Albino Swiss mouse assessed as reduction in parasitemia at 30 mg/kg, po administered for 4 consecutive days measured after day 7 relative to control; format: functional; set-up: scale not given: the % may be the effect or the level left; conditions: time 7 day
Plasmodium berghei [14] = experiment: Antimalarial activity against Plasmodium berghei ANKA infected in Albino Swiss mouse assessed as reduction in parasitemia at 15 mg/kg, po administered for 4 consecutive days measured after day 5 relative to control; format: functional; set-up: scale not given: the % may be the effect or the level left; conditions: time 5 day
Plasmodium berghei [15] = experiment: Antimalarial activity against Plasmodium berghei ANKA infected in Albino Swiss mouse assessed as reduction in parasitemia at 15 mg/kg, po administered for 4 consecutive days measured after day 7 relative to control; format: functional; set-up: scale not given: the % may be the effect or the level left; conditions: time 7 day
[16] = Acute toxicity in Albino Swiss mouse assessed as change in diarrhea at 300 mg/kg, po administered as single dose measured after 14 days; format: organism-based; conditions: in vivo, 336 h, time 14 day
[17] = Toxicity in Albino Swiss mouse infected with Plasmodium berghei ANKA assessed as mortality rate at 15 to 30 mg/kg, po administered for 4 consecutive days measured for 14 days relative to control; format: organism-based; conditions: in vivo, dose 15-30 mg/kg, time 14 day, read-out: Activity
[18] = Acute toxicity in Albino Swiss mouse assessed as change in relative weight of kidney at 300 mg/kg, po administered as single dose measured after 14 days; format: organism-based; conditions: in vivo, 336 h, time 14 day
Plasmodium berghei [19] = experiment: Antimalarial activity against Plasmodium berghei ANKA infected in Albino Swiss mouse assessed as half-survival time at 30 mg/kg, po administered for 4 consecutive days measured for 30 days (reference value: 16 day); format: functional; conditions: time 30 day
[20] = Acute toxicity in Albino Swiss mouse assessed as behavioural toxicity at 300 mg/kg, po administered as single dose measured after 14 days; format: organism-based; conditions: in vivo, 336 h, time 14 day
[21] = Acute toxicity in Albino Swiss mouse assessed as change in motor function at 300 mg/kg, po administered as single dose measured after 14 days; format: organism-based; conditions: in vivo, 336 h, time 14 day
Plasmodium falciparum = experiment: Induction of morphological changes in chloroquine-resistant Plasmodium falciparum W2 trophozoites assessed as degraded cytoplasm by TEM analysis; format: functional, organism-based
[22] = Cytotoxicity against African green monkey Vero cells incubated for 24 hrs by MTT assay; format: toxicity, cell-based; conditions: chlorocebus sabaeus
Plasmodium berghei [23] = experiment: Antimalarial activity against Plasmodium berghei ANKA infected in Albino Swiss mouse assessed as reduction in parasitemia at 30 mg/kg, po administered for 4 consecutive days measured after day 5 relative to control; format: functional; set-up: scale not given: the % may be the effect or the level left; conditions: time 5 day
[24] = Acute toxicity in Albino Swiss mouse assessed as change in urination volume at 300 mg/kg, po administered as single dose measured after 14 days; format: organism-based; conditions: in vivo, 336 h, time 14 day
[25] = Acute toxicity in Albino Swiss mouse assessed as signs of cyanosis at 300 mg/kg, po administered as single dose measured after 14 days; format: organism-based; conditions: in vivo, 336 h, time 14 day

SMILES: CCN(CC)CCCC(C)Nc1ccnc2cc(Cl)ccc12 (configuration not stated) [CHLOROQUINE]
- Activity [1]: Non-Toxic
- Activity [2]: Non-Toxic
- Activity [3]: Non-Toxic
- Activity [4]: Non-Toxic
- Activity [5]: Non-Toxic
- Activity [6]: Non-Toxic
- Survival (Plasmodium berghei [7]): 26 days
- Activity [8]: Non-Toxic
- CC50 (HepG2): > 200 µM
- Activity [9]: Non-Toxic
- Activity [10]: Non-Toxic
- Activity [11]: Non-Toxic
- Activity [12]: Non-Toxic
- Activity (Plasmodium berghei [13]): 98%
- Activity (Plasmodium berghei [14]): 95%
- Activity (Plasmodium berghei [15]): 92%
- Activity [16]: Non-Toxic
- mortality at 336 h [17]: 20%
- Activity [18]: Non-Toxic
- Survival (Plasmodium berghei [19]): 26 days
- Activity [20]: Non-Toxic
- Activity [21]: Non-Toxic
- Activity (Plasmodium falciparum): Active
- CC50 at 24 h [22]: 35.8 µM
- Activity (Plasmodium berghei [23]): 99%
- Activity [24]: Non-Toxic
- Activity [25]: Non-Toxic
